According to patent publication US20200102295A1, “NITROCATECHOL DERIVATIVES AS COMT INHIBITORS” (BIAL - PORTELA & CA, S.A., priority 2005, published 2020):

Legend:
mouse liver COMT = biological target: T1, mouse liver COMT (Mus musculus, UniProt O88587); experiment: Mouse liver COMT activity after oral administration of test compounds; assay type: in vivo; conditions: 3 mg/kg oral, 3 h after administration
T1 construct: Aliquots of 0.5 ml of liver homogenates were preincubated; from tissue; host or cells: mouse liver homogenate (NMRI mice, dosed orally; ex vivo activity)
T1 sequence (O88587 1-265): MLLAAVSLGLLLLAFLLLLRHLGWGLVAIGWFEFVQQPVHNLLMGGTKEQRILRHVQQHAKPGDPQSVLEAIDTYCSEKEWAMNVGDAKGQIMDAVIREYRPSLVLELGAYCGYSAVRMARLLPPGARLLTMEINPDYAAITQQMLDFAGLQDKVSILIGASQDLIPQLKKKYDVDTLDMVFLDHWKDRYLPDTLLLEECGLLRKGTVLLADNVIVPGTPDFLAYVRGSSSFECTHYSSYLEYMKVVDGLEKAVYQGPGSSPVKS

[1] = test system: Neuro 2A mouse neuroblastoma cells; experiment: Cell toxicity: Neuro 2A cell viability (calcein-AM); assay type: cell-based; conditions: Neuro 2A cells, 30 μM, 24 h exposure
[2] = test system: plasma levels of L-DOPA and 3-O-methyl-L-DOPA (3-OMD); experiment: Levels of L-DOPA and 3-O-methyl-L-DOPA in plasma of rats treated with L-DOPA plus benserazide; assay type: in vivo, rat; conditions: 3 mg/kg oral, 2 h after administration; for L-DOPA % increase (plasma level, % control) / 3-OMD % reduction (plasma level, % control): L-DOPA plus benserazide 1 h before plasma collection; for 3-OMD % reduction (plasma level, % control): given with minus sign; for L-Dopa/3-OMD: plasma ratio

Row | Compound | COMT activity (% of control) (mouse liver COMT) | % of viable cells [1] [%] | L-DOPA % increase (plasma level, % control) [2] [%] | 3-OMD % reduction (plasma level, % control) [2] [%] | L-Dopa/3-OMD [2]
1 | Cc1cc(C(F)(F)F)c(-c2noc(-c3cc(O)c(O)c([N+](=O)[O-])c3)n2)c(C)[n+]1[O-] [Compound 31, 5-[3-(2,6-Dimethyl-1-oxy-4-trifluoromethyl-pyridin-3-yl)-[1,2,4]oxadiazol-5-yl]-3-nitro-benzene-1,2-diol] | 0.8 % of control | 37.2 | – | – | –
2 | Cc1c(-c2noc(-c3cc(O)c(O)c([N+](=O)[O-])c3)n2)c(C(F)(F)F)cc(-c2ccccc2)[n+]1[O-] [Compound 32, 5-[3-(2-Methyl-1-oxy-6-phenyl-4-trifluoromethyl-pyridin-3-yl)-[1,2,4]oxadiazol-5-yl]-3-nitro-benzene-1,2-diol] | 9.7 % of control | 26.6 | – | – | –
3 | Cc1cc(C(F)(F)F)c(-c2noc(-c3cc(O)c(O)c([N+](=O)[O-])c3)n2)c(-c2ccccc2)[n+]1[O-] [Compound 33, 5-[3-(6-Methyl-1-oxy-2-phenyl-4-trifluoromethyl-pyridin-3-yl)-[1,2,4]oxadiazol-5-yl]-3-nitro-benzene-1,2-diol] | 39.8 % of control | 45.0 | – | – | –
4 | Cc1ccc(-c2noc(-c3cc(O)c(O)c([N+](=O)[O-])c3)n2)c(Br)[n+]1[O-] [Compound 36, 5-[3-(2-Bromo-6-methyl-1-oxy-pyridin-3-yl)-[1,2,4]oxadiazol-5-yl]-3-nitro-benzene-1,2-diol] | 22.9 % of control | 76.3 | – | – | –
5 | Cc1cc(C)[n+]([O-])c(Cl)c1-c1noc(-c2cc(O)c(O)c([N+](=O)[O-])c2)n1 [Compound 37, 5-[3-(2-Chloro-4,6-dimethyl-1-oxy-pyridin-3-yl)-[1,2,4]oxadiazol-5-yl]-3-nitro-benzene-1,2-diol] | 42.5 % of control | 92.3 | – | – | –
6 | Cc1cc(C)[n+]([O-])c(Br)c1-c1noc(-c2cc(O)c(O)c([N+](=O)[O-])c2)n1 [Compound 38, 5-[3-(2-Bromo-4,6-dimethyl-1-oxy-pyridin-3-yl)-[1,2,4]oxadiazol-5-yl]-3-nitro-benzene-1,2-diol] | 16.3 % of control | 86.0 | – | – | –
7 | O=[N+]([O-])c1cc(-c2nc(Cc3ccc[n+]([O-])c3)no2)cc(O)c1O [Compound 39, 3-Nitro-5-[3-(1′-oxy-pyridin-3-ylmethyl)-[1,2,4]oxadiazol-5-yl]-benzenediol] | 53.8 % of control | 94.9 | – | – | –
8 | Cc1c(C)c(C)[n+]([O-])c(Br)c1-c1noc(-c2cc(O)c(O)c([N+](=O)[O-])c2)n1 [Compound 40, 5-[3-(2-Bromo-4,5,6-trimethyl-1-oxy-pyridin-3-yl)-[1,2,4]oxadiazol-5-yl]-3-nitrobenzene-1,2-diol] | 55.2 % of control | 69.1 | – | – | –
9 | Cc1c(Cl)c(C)[n+]([O-])c(Cl)c1-c1noc(-c2cc(O)c(O)c([N+](=O)[O-])c2)n1 [Compound 45, 5-[3-(2,5-Dichloro-4,6-dimethyl-1-oxy-pyridin-3-yl)-[1,2,4]oxadiazol-5-yl]-3-nitrobenzene-1,2-diol] | 30.4 % of control | 86.6 | 100.8 | −54.3 | 4.4
10 | Cc1c(-c2noc(-c3cc(O)c(O)c([N+](=O)[O-])c3)n2)c[n+]([O-])c(C)c1C [Compound 46, 3-Nitro-5-[3-(4,5,6-trimethyl-1-oxy-pyridin-3-yl)-[1,2,4]oxadiazol-5-yl]-benzene-1,2-diol] | 43.1 % of control | 53.0 | – | – | –
11 | CCN(CC)C(=O)/C(C#N)=C/c1cc(O)c(O)c([N+](=O)[O-])c1 [Entacapone, (E)-2-cyano-N,N-diethyl-3-(3,4-dihydroxy-5-nitrophenyl)acrylamide, reference compound] | – | – | 68.5 | −55.6 | 3.8
